Laboratory results reported in patent US12162959B2, “Cyclic peptide for treating cancer” (Saint Leo University, priority 2018, dated 2024).
Where a SMILES comes first, the peptide text is derived from it.

Assays:
[1] = system: Human recombinant CMG helicase; assay: In vitro CMG helicase activity assay with Y-shaped oligonucleotide substrate; type: biochemical; conditions: about 5 nM CMG helicase, 1.0, 2.0 or 5.0 nM peptide, 0.5 mM ATP, 37° C. 45 minutes; FIG. 1A/1B
Procedure: Human recombinant CMG helicase was co-incubated with Peptide 7N (amide cyclic of SEQ ID NO: 1) peptide in the 1-5 nM range and subjected to an in vitro activity assay with Y-shaped oligonucleotides as a substrate.
About 5 nM of CMG helicase was pre-incubated with 1.0, 2.0, or 5.0 nM of Peptide 7N peptide for 20 minutes on ice. In vitro helicase reactions containing partially annealed Y-shaped oligonucleotides as substrate were fired by the addition of 0.5 mM ATP as described previously (Kang Y H et al. PNAS, 2012, 109(16), p. 6042-6047). Reactions were incubated at 37° C. for 45 minutes, stopped with 4 μL of 6× stop solution, and separated by 10% PAGE. To visualize DNA bands, the gel was stained using SYBR Gold nucleic acid stain. Densities of single-stranded DNA bands were quantified by using Image Lab software, and normalized against control.

[2] = system: THLE-3 immortalized normal liver cells
Procedure: (§1) Hepatocellular carcinoma (Hep3B and Hep-G2) and immortalized normal liver (THLE-3) cells were transfected with 1.25 μM, 2.5 μM, 5.0 μM, or 20.0 μM of peptide 7N by using Pierce Protein Transfection reagent. Cells were incubated post-transfection for a duration of two doubling periods and assessed for viability by using a cell proliferetion CCK-8 assay.
(§2) IC50 values were calculated form obtained equations that describe cell viability as a function of peptide concentration.

[3] = system: MRC-9 normal embryonic lung fibroblasts
Procedure: (§3) Cells were incubated post-transfection for a duration of two doubling periods and assessed for viability by using a cell proliferetion CCK-8 assay.
as §2

[4] = system: hTERT-HPNE immortalized normal pancreatic cells
Procedure: as §3, §2

[5] = system: HMEC primary mammary epithelial cells
Procedure: (§4) Breast adenocarcinoma (MDA-MB468), ductal carcinoma (BT-549), and primary mammary epithelial (HMEC) cells were transfected with 1.25 μM, 2.5 μM, 5.0 μM, or 20.0 μM of peptide 7N by using Pierce Protein Transfection reagent. Cells were incubated post-transfection for a duration of two doubling periods and assessed for viability by using a cell proliferetion CCK-8 assay.
as §2

[6] = system: SVG p12 immortalized normal astroglia cells
Procedure: as §3, §2

Procedure for BT-549 cells: as §4, §2
Procedure for H596 cells: as §3, §2
Procedure for HLF-a cells: as §3, §2
Procedure for Hep-G2 cells: as §1, §2
Procedure for Hep3B cells: as §1, §2
Procedure for Hs 766T cells: as §3, §2
Procedure for M059J cells: as §3, §2
Procedure for M059K cells: as §3, §2
Procedure for MDA-MB468 cells: as §4, §2
Procedure for NTERA-2 cells: Pierce Protein Transfection reagent (Thermo Scientific, 89850) was used to deliver peptide to the cultured cells. Transfected cells were allowed to go through two division cycles (48 hours) port-transfection, after which amounts of alive cells were determined by using a colorimetric CCK-8 assay (Dojindo Molecular Technologies, Inc.).
Human embryonal testicular carcinoma cells (NTERA-2 from ATCC #CRL-1973) were transfected with 1-10 μM Peptide 7N for 4.0 hours, incubated in a complete media for 48 hours, and assessed for viability by using a CCK-8 colorimetric assay.
as §2
Procedure for PANC-1 cells: as §3, §2
Procedure for SW480 cells: (§5) Colorectal adenocarcinoma cells (SW480 and SW620) were transfected with 1.25 μM, 2.5 μM, 5.0 μM, or 20.0 μM of peptide 7N by using Pierce Protein Transfection reagent. Cells were incubated post-transfection for a duration of two doubling periods and assessed for viability by using a cell proliferetion CCK-8 assay.
as §2
Procedure for SW620 cells: as §5, §2

IC50 (Hep-G2 cells): 16.7 µM
IC50 (M059K cells): 16.1 µM
IC50 (HLF-a cells): 14.4 µM
IC50 (H596 cells): 12.2 µM
IC50 (MDA-MB468 cells): 17.1 µM
IC50 (Hs 766T cells): 18.1 µM
IC50 (M059J cells): 15.4 µM
IC50 (SW620 cells): 22 µM
IC50 [5]: 134 µM
IC50 (NTERA-2 cells; 48 h): 7 µM
IC50 (PANC-1 cells): 24.6 µM
IC50 (SW480 cells): 21.8 µM
IC50 (Hep3B cells): 14.1 µM
IC50 (BT-549 cells): 18.3 µM
Compound: CSCC[C@@H]1NC(=O)[C@H](CCC(N)=O)NC(=O)[C@H](CC(C)C)NC(=O)[C@H](C(C)C)NC(=O)[C@H](CCC(=O)O)NC(=O)CNC(=O)[C@H](CCCCN)NC(=O)[C@H](C(C)C)NC(=O)[C@H](CC(C)C)NC(=O)[C@H](CC(=O)O)NC(=O)[C@H](CC(=O)O)NC(=O)[C@H](CCC(=O)O)NC1=O [Peptide 7N, Lys-Gly-Glu-Val-Leu-Gln-Met-Glu-Asp-Asp-Leu-Val] (cyclo(KGEVLQMEDDLV))
Proliferation of liver carcinoma cells (result in words) (Hep-G2 cells; Hep-G2, 1.25-20.0 μM peptide, CCK-8, FIG. 4): decreased proliferation
Proliferation of brain glioma cells (result in words) (M059K cells; M059K, 1.25-20.0 μM peptide, CCK-8, FIG. 6): decreased proliferation
Inhibition of CMG helicase (density of single-stranded DNA bands normalized against control) [1]: inhibited CMG helicase in a robust dose-dependent manner
Proliferation of lung carcinoma cells (result in words) (HLF-a cells; HLF-a, 1.25-20.0 μM peptide, CCK-8, FIG. 3): decreased proliferation
IC50 [2]: 722 µM
Effect on immortalized normal liver cells (result in words) ([2]; THLE-3, 1.25-20.0 μM peptide, CCK-8, FIG. 4): sparing
Proliferation of lung carcinoma cells (result in words) (H596 cells; H596, 1.25-20.0 μM peptide, CCK-8, FIG. 3): decreased proliferation
Proliferation of breast cancer cells (result in words) (MDA-MB468 cells; MDA-MB468, 1.25-20.0 μM peptide, CCK-8, FIG. 7): decreases proliferation
IC50 [3]: 162 µM
Effect on normal lung fibroblasts (result in words) ([3]; MRC-9, 1.25-20.0 μM peptide, CCK-8, FIG. 3): sparing
Proliferation of pancreatic carcinoma cells (result in words) (Hs 766T cells; Hs 766T, 1.25-20.0 μM peptide, CCK-8, FIG. 5): decreased proliferation
Proliferation of brain glioma cells (result in words) (M059J cells; M059J, 1.25-20.0 μM peptide, CCK-8, FIG. 6): decreased proliferation
IC50 [4]: 1050 µM
Effect on immortalized normal pancreatic cells (result in words) ([4]; hTERT-HPNE, 1.25-20.0 μM peptide, CCK-8, FIG. 5): sparing
Proliferation of colorectal cancer cells (result in words) (SW620 cells; SW620, 1.25-20.0 μM peptide, CCK-8, FIG. 8): decreased proliferation
Effect on normal mammary epithelial cells (result in words) ([5]; HMEC, 1.25-20.0 μM peptide, CCK-8, FIG. 7): sparing
Proliferation/viability of NTERA-2 cells (NTERA-2 cells; transfected with 1-10 μM peptide for 4.0 hours, 48 hours in complete media, CCK-8, FIG. 2): effectively inhibited proliferation
IC50 [6]: 271 µM
Effect on immortalized normal astroglia cells (result in words) ([6]; SVG p12, 1.25-20.0 μM peptide, CCK-8, FIG. 6): sparing
Proliferation of pancreatic carcinoma cells (result in words) (PANC-1 cells; PANC-1, 1.25-20.0 μM peptide, CCK-8, FIG. 5): decreased proliferation
Proliferation of colorectal cancer cells (result in words) (SW480 cells; SW480, 1.25-20.0 μM peptide, CCK-8, FIG. 8): decreased proliferation
Proliferation of liver carcinoma cells (result in words) (Hep3B cells; Hep3B, 1.25-20.0 μM peptide, CCK-8, FIG. 4): decreased proliferation
Proliferation of breast cancer cells (result in words) (BT-549 cells; BT-549, 1.25-20.0 μM peptide, CCK-8, FIG. 7): decreases proliferation
